From US10561703B2, “Method of modulating sex hormone levels using a sex hormone secretion modulator” (GEMVAX & KAEL CO., LTD., priority 2013, dated 2020)

System: GnRH mRNA
Test: Relative GnRH mRNA expression in serum, real-time qPCR
Format: in vivo, Sprague-Dawley (SD) rats
Conditions: 100 mg/kg sc, 4 hr post-administration, Day 1
Protocol: Sprague-Dawley (SD) rats were obtained from Orient Bio (Gyronggi-do, South Korea), and seven-week-old rats were used for the study. Rat were administered by subcutaneous (sc) injection of PEP-1 (100 mg/kg) twice (at Day 1 and at Day 7) during the seven day study period. Blood samples (1.4 mL) were collected at Day 0 (before the administration of PEP-1), at Day 1 (4 hr and 8 hr post injection), and at Day 7 (4 hr post injection). Serum samples obtained from the blood were used for the experiment. Serum samples prepared from the blood collected at Day 1 (4 hr post injection) were used for the experiment. The animal care and procedures were approved and in accordance with the Korea Animal Medical Science Institute (KAMSI) IACUC.
RNA isolation and cDNA synthesis from the serum samples. The external control, miRNeasy Serum/Plasma Spike-In Control was added in each serum sample prior to the RNA extraction. […]
Real-time qPCR was performed using the RT2 SYBR Green qPCR Mastermix kit (Qiagen) with a CFX96 Real-Time System (Bio-Rad, Hercules, Calif., USA). Data was analyzed by CFX Manager™ Software V3.0 using the ΔΔCt method.
Rat serum samples obtained from the blood collected at 4 hr post-administration of PEP-1 (100 mg/kg) on the 1st day of the experiment were analyzed for the mRNA expression of gonadotropin-releasing hormone (GnRH). […]

## EARPALLTSRLRFIPK (listed as Homo sapiens) [PEP-1, hormone secretion modulator / GnRH analog]
Female rats
  Relative GnRH mRNA expression in serum: increased the relative GnRH mRNA expression
Male rats
  Relative GnRH mRNA expression in serum: increased the relative GnRH mRNA expression
